The values below come from patent publication US10053455B2, “Diazaspiroalkaneone-substituted oxazole derivatives as spleen tyrosine kinase inhibitors” (AB SCIENCE, priority 2014, dated 2018).

In one data set the target is Jak1 (Homo sapiens (Human), UniProt P23458). The data set can be described thus: HTRF kinase assay, Jak1. Format: biochemical. Conditions: enzymatic determination. The procedure:
(§1) Most of the kinases tested in this study were cloned, expressed and purified in the facilities of the inventors. They were expressed either as N-terminus hexahistidine-, hexahistidine-asparagine- or GST-tagged enzymes in a baculovirus or in a Colibacille expression system. Remaining enzymes (JAKs) were purchased from Millipore or Proqinase. For each enzyme, steady state kinetic parameters were determined and validated with known inhibitors.
(§2) The analysis of the effect of compounds on kinase activity was assessed with the HTRF® KinEASE assay (Cisbio International), an immuno-assay based on the quantification of the level of phosphorylation of a biotinylated peptide substrate using anti-phospho-specific antibody labeled with Europium (Eu^3+) cryptate. This assay comprises two steps: —an enzymatic step, during which the peptide substrate, the kinase, ATP, Mg^2+ and/or Mn^2+ are incubated with varying concentration of drug (from 0 to 10 μM); —a detection step, at the end of the reaction (stopped by addition of EDTA which chelates Mg^2+), the antibody anti-phospho peptide-Eu^3+ (emission 620 nm) and streptavidin XL-665 (emission 665 nm) are added to the reaction mix. […] Results are expressed in delta fluorescence (DF) unit defined as follow DF %=[(ratio−ratio blank)/(ratio blank)]*100, where ratio=(665 nm/620 nm)*10^4. […]
A general note: In TR-FRET formats the signal depends on donor and acceptor labels being close together.

Another data set addresses KIT wild-type (Homo sapiens (Human), UniProt P10721). The data set can be described thus: Cell-based proliferation assay on BaF3 model, KIT wild-type. How it is done:
(§3) Cell-based proliferation and viability assay CellTiter-Bleue cell-based survival/proliferation assay (Promega G8080) was performed on BaF3 models.
(§4) A total of 1.10^4 cells/well/50 μl were seeded in a 96-wells plate. Treatment was initiated by addition of a 2× drug solution of ½ serial dilutions ranging from 0 to 10 μM. Cells were grown for 48-72 h at 37° C. and then incubated with 10 μl/well of Promega CellTiter-Bleue reagent for 4 h at 37° C. The amount of formazan dye formed was quantified by its absorbance at 450 nm using a scanning multiwell spectrophotometer (POLARstar Omega, BMG labtech, France). A blank well without cells was used as a background control for the spectrophotometer and all assays were performed in duplicates and the experiments were repeated at least twice.

In a further data set the target is Flt3 (Homo sapiens (Human), UniProt P36888). Nature of the data set: Cell-based proliferation assay on BaF3 model, Flt3. The procedure:
as §3, §4

In another data set the target is VEGFR2 (Homo sapiens (Human), UniProt P35968). The data set can be described thus: HTRF kinase assay, VEGFR2. Format: biochemical. Conditions: enzymatic determination. How it is done:
as §1, §2

Data set [1] concerns murine model of arthritis. Nature of the data set: K/BxN serum mouse model of rheumatoid arthritis: ankle thickening and arthritis score. Format: in vivo, C57Bl/6 mice. How it is done:
K/B×N serum pools were prepared from arthritic mice at 8 weeks of age. The mice were pre-treated with SYK inhibitors by two per os administration for two days before induction of arthritis. Arthritis was induced in the C57Bl/6 mice (8 weeks of age) by intraperitoneal injection (7.5 μl serum per g weight) at days 0 and 2.
The treatment with SYK inhibitors was continued for 13 days. The control mice were injected with solvent before the induction of arthritis and during the course of the disease. The compounds were dissolved in a solution containing 10% of Tween 80 and 10% 1-2 propandiol. It was prepared before administration.
Ankle thickening measure, being defined as the difference in ankle thickness from the day 0, was measured using a precision calliper. Arthritis/clinical score was defined by sum of scores of each lim (0 no disease; 1 mild swelling of paw or of just of few digits; 2 clear joint inflammation; 3 severe joint inflammation) maximum score=12.
K/B×N was a murine model of spontaneous rheumatoid arthritis that mimics many of the clinical and histological features of human disease with synovitis predominantly in the distal small joints. Arthritis was induced by intraperitoneal injection of arthritis serum of K/B×N mice at days 0 and 2 as described in protocol assays above. Compound 001 was tested at 15 and 50 mg/kg/day b.i.d. and compared with Masitinib at 50 mg/kg/day b.i.d., an AB Science drug candidate for treating rheumatoid arthritis (Arthritis Res Ther., (2009), 11(3):R95). Ankle thickening and arthritis score were used to monitor the in vivo activity of the compounds.

Data set [2] is described as follows: WST-1 cell survival/proliferation assay on rat cardiomyocytes. Format: cell-based. Conditions: Rat Cardiac Myocyte. The procedure:
WST-1 cell survival/proliferation assay (Roche Diagnostic ref No 1644807) was performed on both primary human adult cardiomyocytes and rat neonatal cardiac myocytes.
Human cardiomyocytes were isolated from normal human ventricle tissue of the adult heart and were able to proliferate for a number of passage. Neonatal ventricular Clonetics® Rat Cardiac Myocytes (P1-3) retained their contractile property and were electrophysiologically active in culture. 1.10^4 primary rat cells or 2-2.5 10^4 adult human cells were plated per well of a 96 wells plates. The cells were allowed to adhere to the plates for 5 days before drug treatment. Treatment was initiated by addition of a 2× drug solution of ½ serial dilutions ranging from 0 to 10 μM. Cells were grown for 48 h at 37° C. and then incubated with 10 μl/well of WST-1 reagent for 4 h at 37° C. The amount of formazan dye formed was quantified by its absorbance at 450 nm using a scanning multiwell spectrophotometer (MultiSkan MS, Thermo-LabSystems, France). A blank well without cells was used as a background control for the spectrophotometer and all assays were performed in triplicate.
(In general: Formazan colour is commonly taken as a measure of viable cells.)

Sequence of VEGFR2 (P35968 20-1356, species assumed): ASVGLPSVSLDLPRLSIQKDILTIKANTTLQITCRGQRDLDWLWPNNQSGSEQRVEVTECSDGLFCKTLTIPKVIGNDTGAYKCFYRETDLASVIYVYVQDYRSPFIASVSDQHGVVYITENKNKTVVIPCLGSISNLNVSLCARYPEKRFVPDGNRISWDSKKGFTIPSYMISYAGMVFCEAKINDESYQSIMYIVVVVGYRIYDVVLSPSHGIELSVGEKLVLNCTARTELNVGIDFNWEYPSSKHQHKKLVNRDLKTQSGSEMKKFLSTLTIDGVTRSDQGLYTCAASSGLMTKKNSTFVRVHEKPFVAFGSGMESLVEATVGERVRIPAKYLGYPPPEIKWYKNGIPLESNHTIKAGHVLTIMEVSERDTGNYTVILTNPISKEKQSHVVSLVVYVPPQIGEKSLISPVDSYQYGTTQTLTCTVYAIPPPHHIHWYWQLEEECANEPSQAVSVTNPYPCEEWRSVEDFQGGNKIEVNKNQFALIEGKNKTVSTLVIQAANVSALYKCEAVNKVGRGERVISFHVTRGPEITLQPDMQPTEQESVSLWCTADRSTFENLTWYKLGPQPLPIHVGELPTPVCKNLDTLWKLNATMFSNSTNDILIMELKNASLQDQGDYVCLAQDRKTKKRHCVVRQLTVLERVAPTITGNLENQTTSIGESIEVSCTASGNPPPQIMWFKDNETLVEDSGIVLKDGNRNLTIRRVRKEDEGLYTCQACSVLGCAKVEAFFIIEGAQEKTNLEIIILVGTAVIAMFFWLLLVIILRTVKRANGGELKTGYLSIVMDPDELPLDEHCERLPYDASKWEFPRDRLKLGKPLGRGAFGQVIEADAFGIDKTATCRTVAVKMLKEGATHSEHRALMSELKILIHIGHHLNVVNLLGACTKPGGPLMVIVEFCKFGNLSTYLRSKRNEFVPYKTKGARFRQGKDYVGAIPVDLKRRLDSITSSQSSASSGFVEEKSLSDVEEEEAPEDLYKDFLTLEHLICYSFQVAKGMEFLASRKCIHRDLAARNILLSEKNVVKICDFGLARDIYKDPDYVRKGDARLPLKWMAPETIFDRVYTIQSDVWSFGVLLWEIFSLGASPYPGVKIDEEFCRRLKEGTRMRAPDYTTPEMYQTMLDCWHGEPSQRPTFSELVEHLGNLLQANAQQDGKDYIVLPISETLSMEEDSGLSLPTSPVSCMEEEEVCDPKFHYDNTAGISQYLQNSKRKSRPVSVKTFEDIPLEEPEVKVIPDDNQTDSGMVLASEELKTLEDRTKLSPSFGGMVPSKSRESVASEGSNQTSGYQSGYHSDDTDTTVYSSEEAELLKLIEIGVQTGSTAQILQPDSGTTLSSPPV
Sequence of Jak1 (P23458 whole entry): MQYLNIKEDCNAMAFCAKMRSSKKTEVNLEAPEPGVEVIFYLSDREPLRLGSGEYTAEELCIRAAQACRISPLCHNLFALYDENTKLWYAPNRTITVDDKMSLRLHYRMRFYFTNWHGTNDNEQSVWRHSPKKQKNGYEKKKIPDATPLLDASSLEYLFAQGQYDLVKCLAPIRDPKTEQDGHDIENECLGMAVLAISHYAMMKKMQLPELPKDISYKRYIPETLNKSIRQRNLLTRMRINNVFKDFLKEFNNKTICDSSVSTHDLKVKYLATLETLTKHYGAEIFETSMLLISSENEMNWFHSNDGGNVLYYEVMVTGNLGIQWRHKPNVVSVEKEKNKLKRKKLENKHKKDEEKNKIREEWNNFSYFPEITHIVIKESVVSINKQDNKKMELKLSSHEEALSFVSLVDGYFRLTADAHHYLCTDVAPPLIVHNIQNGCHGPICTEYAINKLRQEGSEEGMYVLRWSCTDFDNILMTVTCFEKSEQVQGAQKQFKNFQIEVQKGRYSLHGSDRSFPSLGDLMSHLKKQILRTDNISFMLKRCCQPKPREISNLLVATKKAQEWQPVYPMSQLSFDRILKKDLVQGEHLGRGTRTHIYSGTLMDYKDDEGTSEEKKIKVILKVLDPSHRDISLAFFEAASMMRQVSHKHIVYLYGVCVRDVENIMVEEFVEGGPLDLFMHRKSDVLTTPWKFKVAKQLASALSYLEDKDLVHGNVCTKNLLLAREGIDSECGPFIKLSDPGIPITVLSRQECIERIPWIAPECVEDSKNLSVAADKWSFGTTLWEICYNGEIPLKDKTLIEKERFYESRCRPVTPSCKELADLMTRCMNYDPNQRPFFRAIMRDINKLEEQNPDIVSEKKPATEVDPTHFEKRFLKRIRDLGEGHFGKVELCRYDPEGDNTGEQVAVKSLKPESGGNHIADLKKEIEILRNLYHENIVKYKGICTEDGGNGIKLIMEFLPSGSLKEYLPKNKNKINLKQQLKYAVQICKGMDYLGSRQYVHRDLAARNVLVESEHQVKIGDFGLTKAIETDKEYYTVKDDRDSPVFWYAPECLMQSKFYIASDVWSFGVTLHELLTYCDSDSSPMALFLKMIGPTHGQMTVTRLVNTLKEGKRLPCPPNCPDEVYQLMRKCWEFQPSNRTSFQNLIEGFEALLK
Sequence of Flt3 (P36888 27-993, species assumed): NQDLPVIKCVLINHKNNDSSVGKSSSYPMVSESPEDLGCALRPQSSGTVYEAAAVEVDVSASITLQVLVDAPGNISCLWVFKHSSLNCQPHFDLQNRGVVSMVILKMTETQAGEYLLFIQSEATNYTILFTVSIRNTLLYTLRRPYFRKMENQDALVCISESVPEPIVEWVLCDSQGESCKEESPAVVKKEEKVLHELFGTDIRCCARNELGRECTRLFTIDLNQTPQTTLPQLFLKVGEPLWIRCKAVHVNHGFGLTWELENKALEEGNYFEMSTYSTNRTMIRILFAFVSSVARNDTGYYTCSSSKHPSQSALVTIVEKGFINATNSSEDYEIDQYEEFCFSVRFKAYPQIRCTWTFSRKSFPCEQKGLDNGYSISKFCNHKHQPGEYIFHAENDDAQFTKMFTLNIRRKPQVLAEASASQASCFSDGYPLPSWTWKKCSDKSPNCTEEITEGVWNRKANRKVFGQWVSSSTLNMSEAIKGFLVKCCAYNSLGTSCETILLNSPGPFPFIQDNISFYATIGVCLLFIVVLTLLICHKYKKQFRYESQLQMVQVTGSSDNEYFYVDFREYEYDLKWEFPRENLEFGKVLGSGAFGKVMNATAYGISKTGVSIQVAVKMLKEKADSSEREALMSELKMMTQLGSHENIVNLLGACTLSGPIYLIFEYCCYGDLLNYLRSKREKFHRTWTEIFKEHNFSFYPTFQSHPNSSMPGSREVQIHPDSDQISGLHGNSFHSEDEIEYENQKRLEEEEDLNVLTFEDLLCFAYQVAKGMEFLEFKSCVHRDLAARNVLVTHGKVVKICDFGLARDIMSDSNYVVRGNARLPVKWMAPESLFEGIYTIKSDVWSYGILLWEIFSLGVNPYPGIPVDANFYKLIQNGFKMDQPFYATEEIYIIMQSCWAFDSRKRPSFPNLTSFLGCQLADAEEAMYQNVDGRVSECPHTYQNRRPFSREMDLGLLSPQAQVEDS
Sequence of KIT wild-type (P10721 26-976, species assumed): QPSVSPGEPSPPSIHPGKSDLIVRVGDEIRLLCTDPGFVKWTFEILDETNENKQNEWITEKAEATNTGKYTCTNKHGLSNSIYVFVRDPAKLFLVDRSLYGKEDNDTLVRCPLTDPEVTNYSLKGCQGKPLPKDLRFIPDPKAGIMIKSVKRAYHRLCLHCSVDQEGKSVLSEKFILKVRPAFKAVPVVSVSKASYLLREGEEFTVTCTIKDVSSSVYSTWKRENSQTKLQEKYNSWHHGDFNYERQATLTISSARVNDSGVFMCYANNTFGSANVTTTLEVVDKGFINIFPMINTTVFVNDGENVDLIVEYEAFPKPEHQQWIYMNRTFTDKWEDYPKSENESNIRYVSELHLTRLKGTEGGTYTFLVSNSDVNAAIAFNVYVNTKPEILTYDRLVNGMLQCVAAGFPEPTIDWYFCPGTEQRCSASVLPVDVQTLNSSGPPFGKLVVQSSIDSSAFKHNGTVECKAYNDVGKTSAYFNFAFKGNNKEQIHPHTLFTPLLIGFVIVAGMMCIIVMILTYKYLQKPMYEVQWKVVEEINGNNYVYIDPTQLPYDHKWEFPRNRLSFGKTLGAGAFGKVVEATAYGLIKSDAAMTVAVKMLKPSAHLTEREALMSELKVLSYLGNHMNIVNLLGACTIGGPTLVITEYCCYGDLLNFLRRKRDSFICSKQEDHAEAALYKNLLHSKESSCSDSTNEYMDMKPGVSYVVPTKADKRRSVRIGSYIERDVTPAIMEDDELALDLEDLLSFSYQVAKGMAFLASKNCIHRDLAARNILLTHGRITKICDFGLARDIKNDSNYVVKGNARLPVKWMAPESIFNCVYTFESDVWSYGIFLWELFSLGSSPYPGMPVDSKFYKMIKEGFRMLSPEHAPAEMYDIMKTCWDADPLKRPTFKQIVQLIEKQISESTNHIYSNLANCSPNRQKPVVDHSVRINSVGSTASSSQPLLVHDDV

As for `Cc1ccnc(Nc2cccc(-c3cnc(N4CCNC(=O)C45CC5)o3)c2)n1` [Compound 001, 4-{5-[3-(4-Methyl-pyrimidin-2-ylamino)-phenyl]-oxazol-2-yl}-4,7-diaza-spiro[2.5]octan-8-one], the IC50 – broadly, the concentration that gives 50% inhibition – came to 3.4 µM on Jak1, 10 µM against KIT wild-type, 6 µM at Flt3 and 20 µM at VEGFR2. Besides, the “Ankle Thickening Score” value in data set [1] (15 mg/kg b.i.d.) is −17%; in data set [1] (50 mg/kg b.i.d.), −52% P < 0.005. Further, the “Arthritis Score” value in data set [1] (15 mg/kg b.i.d.) is −23%; in data set [1] (50 mg/kg b.i.d.), −68% P < 0.005. Also, the “reduction of ankle thickening” value in data set [1] (2×50 mg/kg/day) was 52%. The “reduction of arthritis score” value in data set [1] (2×50 mg/kg/day) stood at 68%. The half-maximal inhibitory concentration (IC50) at 48 h in data set [2] (neonatal ventricular rat cardiac myocytes (Clonetics, P1-3), 48 h, read-out: Drug-induced cytotoxicity IC50, Rat-CM) was determined as 10 µM. Moreover, the viability change vs untreated control at 48 h, 1 µM in data set [2] (rat neonatal cardiac myocytes, 1 μM) was -2%.
